Source: ChEMBL document CHEMBL3046027, “In vitro and in vivo antifungal activity of synthetic pure isothiocyanates against Sclerotinia sclerotiorum” (Pest Manag Sci, 2011)
pEC50: −log10 of the molar value.

Columns and labels:
Sclerotinia sclerotiorum [1] = assay: Antifungal activity against Sclerotinia sclerotiorum assessed as inhibition of germination in volatile phase at 84 umol/l measured at 20 degC after 5 days; assay type: functional; settings: AT84, 120 h
Sclerotinia sclerotiorum [2] = assay: In vivo antifungal Sclerotinia sclerotiorum in Pepper (Capsicum annuum L. cv. Sera Demre) assessed as inhibition of mycelial growth in volatile phase at 168 umol/L measured after 10 to 14 weeks; assay type: functional
Sclerotinia sclerotiorum [3] = assay: Antifungal activity against Sclerotinia sclerotiorum assessed as inhibition of germination in volatile phase at 422 umol/l measured at 20 degC after 5 days; assay type: functional; settings: 120 h
Sclerotinia sclerotiorum [4] = assay: Antifungal activity against Sclerotinia sclerotiorum assessed as inhibition of mycelial growth in volatile phase at 840 umol/l measured at 20 degC after 5 days; assay type: functional; settings: 120 h, read-out: GI
Sclerotinia sclerotiorum [5] = assay: Antifungal activity against Sclerotinia sclerotiorum assessed as inhibition of germination in volatile phase at 42 umol/l measured at 20 degC after 5 days; assay type: functional; settings: 120 h
Sclerotinia sclerotiorum [6] = assay: Fungistatic activity in Sclerotinia sclerotiorum assessed as inhibition of carpogenic germination in volatile phase at 422 umol/l measured at 20 degC after 5 days relative to control; assay type: functional; settings: 120 h
Sclerotinia sclerotiorum [7] = assay: In vivo antifungal Sclerotinia sclerotiorum in Pepper (Capsicum annuum L. cv. Sera Demre) assessed as inhibition of mycelial growth in volatile phase at 84 umol/L measured after 10 to 14 weeks; assay type: functional
Sclerotinia sclerotiorum [8] = assay: Fungistatic activity in Sclerotinia sclerotiorum assessed as inhibition of mycelial growth in contact phase measured at 20 degC after 5 days; assay type: functional, organism-based; settings: 120 h
Sclerotinia sclerotiorum [9] = assay: Antifungal activity against Sclerotinia sclerotiorum assessed as inhibition of germination in volatile phase at 844 umol/l measured at 20 degC after 5 days; assay type: functional; settings: 120 h
Sclerotinia sclerotiorum [10] = assay: Antifungal activity against Sclerotinia sclerotiorum assessed as inhibition of mycelial growth in contact phase at 591 umol/l measured at 20 degC after 5 days; assay type: functional; settings: 120 h, read-out: GI
Sclerotinia sclerotiorum [11] = assay: Antifungal activity against Sclerotinia sclerotiorum assessed as inhibition of mycelial growth in volatile phase at 84 umol/l measured at 20 degC after 5 days; assay type: functional; settings: 120 h, read-out: GI
Sclerotinia sclerotiorum [12] = assay: Fungitoxic activity in Sclerotinia sclerotiorum assessed as inhibition of mycelial growth in contact phase at 2531 umol/l measured at 20 degC after 5 days relative to control; assay type: functional; settings: 120 h, read-out: GI
Sclerotinia sclerotiorum [13] = assay: Fungistatic activity in Sclerotinia sclerotiorum assessed as viability in volatile phase at 844 umol/l measured at 20 degC after 5 days relative to control; assay type: functional; settings: 120 h, read-out: GI
Sclerotinia sclerotiorum [14] = assay: Fungistatic activity in Sclerotinia sclerotiorum assessed as inhibition of carpogenic germination in volatile phase at 84 umol/l measured at 20 degC after 5 days relative to control; assay type: functional; settings: AT84, 120 h
Sclerotinia sclerotiorum [15] = assay: Antifungal activity against Sclerotinia sclerotiorum assessed as inhibition of mycelial growth in contact phase at 759 umol/l measured at 20 degC after 5 days; assay type: functional; settings: 120 h, read-out: GI
Sclerotinia sclerotiorum [16] = assay: Fungistatic activity in Sclerotinia sclerotiorum assessed as inhibition of carpogenic germination in volatile phase at 42 umol/l measured at 20 degC after 5 days relative to control; assay type: functional; settings: 120 h
Sclerotinia sclerotiorum [17] = assay: Antifungal activity against Sclerotinia sclerotiorum assessed as inhibition of mycelial growth in volatile phase at 588 umol/l measured at 20 degC after 5 days; assay type: functional; settings: 120 h, read-out: GI
Sclerotinia sclerotiorum [18] = assay: Antifungal activity against Sclerotinia sclerotiorum assessed as inhibition of mycelial growth in contact phase at 1688 umol/l measured at 20 degC after 5 days; assay type: functional; settings: 120 h, read-out: GI
Sclerotinia sclerotiorum [19] = assay: Antifungal activity against Sclerotinia sclerotiorum assessed as inhibition of mycelial growth in contact phase at 844 umol/l measured at 20 degC after 5 days; assay type: functional; settings: 120 h, read-out: GI
Sclerotinia sclerotiorum [20] = assay: Fungistatic activity in Sclerotinia sclerotiorum assessed as inhibition of mycelial growth in volatile phase measured at 20 degC after 5 days; assay type: functional, organism-based; settings: 120 h
Sclerotinia sclerotiorum [21] = assay: Fungistatic activity in Sclerotinia sclerotiorum assessed as inhibition of mycelial growth in volatile phase at 588 umol/l measured at 20 degC after 5 days relative to control; assay type: functional; settings: 120 h, read-out: GI
Sclerotinia sclerotiorum [22] = assay: Antifungal activity against Sclerotinia sclerotiorum assessed as inhibition of mycelial growth in volatile phase at 422 umol/l measured at 20 degC after 5 days; assay type: functional; settings: 120 h, read-out: GI
Sclerotinia sclerotiorum [23] = assay: Fungistatic activity in Sclerotinia sclerotiorum assessed as inhibition of mycelial growth in contact phase at 1688 umol/l measured at 20 degC after 5 days relative to control; assay type: functional; settings: 120 h, read-out: GI
Sclerotinia sclerotiorum [24] = assay: Antifungal activity against Sclerotinia sclerotiorum assessed as inhibition of mycelial growth in contact phase at 2531 umol/l measured at 20 degC after 5 days; assay type: functional; settings: 120 h, read-out: GI
Sclerotinia sclerotiorum [25] = assay: Fungistatic activity in Sclerotinia sclerotiorum assessed as sclerotial viability measured at 20 degC after 5 days; assay type: functional, organism-based; settings: 120 h
Sclerotinia sclerotiorum [26] = assay: Antifungal activity against Sclerotinia sclerotiorum assessed as inhibition of germination in volatile phase at 253 umol/l measured at 20 degC after 5 days; assay type: functional; settings: 120 h
Sclerotinia sclerotiorum [27] = assay: Antifungal activity against Sclerotinia sclerotiorum assessed as inhibition of mycelial growth in volatile phase at 42 umol/l measured at 20 degC after 5 days; assay type: functional; settings: 120 h, read-out: GI
Sclerotinia sclerotiorum [28] = assay: Fungistatic activity in Sclerotinia sclerotiorum assessed as inhibition of carpogenic germination in volatile phase at 840 umol/l measured at 20 degC after 5 days relative to control; assay type: functional; settings: 120 h

Compound: CCCCN=C=S [BUTYL ISOTHIOCYANATE]
- inhibition at 84 µM (Sclerotinia sclerotiorum [1]): 0%
- inhibition in vivo at 168 µM (Sclerotinia sclerotiorum [2]): 63.3%
- inhibition at 422 µM (Sclerotinia sclerotiorum [3]): 46.7%
- inhibition of growth at 840 µM (Sclerotinia sclerotiorum [4]): 100%
- inhibition at 42 µM (Sclerotinia sclerotiorum [5]): 0%
- inhibition at 422 µM (Sclerotinia sclerotiorum [6]): 82.5%
- inhibition in vivo at 84 µM (Sclerotinia sclerotiorum [7]): 31.7%
- pEC50 (Sclerotinia sclerotiorum [8]): 3.03
- inhibition at 844 µM (Sclerotinia sclerotiorum [9]): 100%
- inhibition of growth at 591 µM (Sclerotinia sclerotiorum [10]): 5%
- inhibition of growth at 84 µM (Sclerotinia sclerotiorum [11]): 48.7%
- inhibition of growth at 2531 µM (Sclerotinia sclerotiorum [12]): 100%
- inhibition of growth at 844 µM (Sclerotinia sclerotiorum [13]): 100%
- inhibition at 84 µM (Sclerotinia sclerotiorum [14]): 80%
- inhibition of growth at 759 µM (Sclerotinia sclerotiorum [15]): 11.7%
- inhibition at 42 µM (Sclerotinia sclerotiorum [16]): 77.5%
- inhibition of growth at 588 µM (Sclerotinia sclerotiorum [17]): 72.3%
- inhibition of growth at 1688 µM (Sclerotinia sclerotiorum [18]): 100%
- inhibition of growth at 844 µM (Sclerotinia sclerotiorum [19]): 29.2%
- pEC50 (Sclerotinia sclerotiorum [20]): 4.06
- inhibition of growth at 588 µM (Sclerotinia sclerotiorum [21]): 100%
- inhibition of growth at 422 µM (Sclerotinia sclerotiorum [22]): 70.3%
- inhibition of growth at 1688 µM (Sclerotinia sclerotiorum [23]): 100%
- inhibition of growth at 2531 µM (Sclerotinia sclerotiorum [24]): 100%
- pEC50 (Sclerotinia sclerotiorum [25]): 3.39
- inhibition at 253 µM (Sclerotinia sclerotiorum [26]): 13.3%
- inhibition of growth at 42 µM (Sclerotinia sclerotiorum [27]): 22.8%
- inhibition at 840 µM (Sclerotinia sclerotiorum [28]): 92.5%
